Assay results from the supplement of paper PMC9912026.

Tested on: A375_aEGFR2
Experiment: pERK immunofluorescence normalised to no-drug reference (=1); higher = more ERK phosphorylation (less pathway inhibition)
Conditions: drug treatment time 24 h, EGF time 8 h
Experimental: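 A375 CRISPRa-EGFR (A375_aEGFR2) or HT29 cells were treated with two-drug dose combinations (vemurafenib, LY3009120, cobimetinib) for 24 h, then stimulated with EGF (100 ng/mL) or mock medium for 8 h. pERK (T202/Y204) was measured by immunofluorescence as the cytosolic population average, normalised to an untreated no-drug reference of the block (=1). Averages of 2 technical replicates. A375 in 5% FBS, HT29 in 10% FBS.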

CNc1ncc2cc(-c3cc(NC(=O)NCCC(C)(C)C)c(F)cc3C)c(C)nc2n1 + O=C(c1ccc(F)c(F)c1Nc1ccc(I)cc1F)N1CC(O)([C@@H]2CCCCN2)C1 [Cobimetinib]
pERK immunofluorescence normalised
Conditions | EGF 0 ng/mL | EGF 100 ng/mL
drug A concentration 0 µM, drug B concentration 31.62 pM | 1.06 | 0.985
drug A concentration 0 µM, drug B concentration 0.0001 µM | 1.04 | 0.985
drug A concentration 0 µM, drug B concentration 0.000316228 µM | 1.08 | 0.976
drug A concentration 0 µM, drug B concentration 0.001 µM | 0.997 | 0.964
drug A concentration 0 µM, drug B concentration 0.00316228 µM | 0.841 | 0.85
drug A concentration 0 µM, drug B concentration 0.01 µM | 0.546 | 0.726
drug A concentration 0 µM, drug B concentration 0.0316228 µM | 0.29 | 0.564
drug A concentration 0 µM, drug B concentration 0.1 µM | 0.243 | 0.541
drug A concentration 0 µM, drug B concentration 0.316228 µM | 0.235 | 0.428
drug A concentration 0 µM, drug B concentration 1 µM | 0.235 | 0.278
drug A concentration 0.0001 µM, drug B concentration 0 µM | 1.07 | 0.987
drug A concentration 0.0001 µM, drug B concentration 31.62 pM | 0.993 | 0.987
drug A concentration 0.0001 µM, drug B concentration 0.0001 µM | 1.05 | 1.01
drug A concentration 0.0001 µM, drug B concentration 0.000316228 µM | 1.01 | 0.946
drug A concentration 0.0001 µM, drug B concentration 0.001 µM | 0.966 | 0.944
drug A concentration 0.0001 µM, drug B concentration 0.00316228 µM | 0.816 | 0.848
drug A concentration 0.0001 µM, drug B concentration 0.01 µM | 0.498 | 0.692
drug A concentration 0.0001 µM, drug B concentration 0.0316228 µM | 0.284 | 0.606
drug A concentration 0.0001 µM, drug B concentration 0.1 µM | 0.242 | 0.545
drug A concentration 0.0001 µM, drug B concentration 0.316228 µM | 0.234 | 0.416
drug A concentration 0.0001 µM, drug B concentration 1 µM | 0.233 | 0.259
drug A concentration 0.000316228 µM, drug B concentration 0 µM | 1.05 | 1.03
drug A concentration 0.000316228 µM, drug B concentration 31.62 pM | 0.999 | 1.03
drug A concentration 0.000316228 µM, drug B concentration 0.0001 µM | 1.02 | 1.03
drug A concentration 0.000316228 µM, drug B concentration 0.000316228 µM | 1.01 | 0.998
drug A concentration 0.000316228 µM, drug B concentration 0.001 µM | 0.945 | 0.935
drug A concentration 0.000316228 µM, drug B concentration 0.00316228 µM | 0.829 | 0.882
drug A concentration 0.000316228 µM, drug B concentration 0.01 µM | 0.517 | 0.722
drug A concentration 0.000316228 µM, drug B concentration 0.0316228 µM | 0.298 | 0.611
drug A concentration 0.000316228 µM, drug B concentration 0.1 µM | 0.245 | 0.533
drug A concentration 0.000316228 µM, drug B concentration 0.316228 µM | 0.233 | 0.352
drug A concentration 0.000316228 µM, drug B concentration 1 µM | 0.233 | 0.234
drug A concentration 0.001 µM, drug B concentration 0 µM | 1.02 | 1
drug A concentration 0.001 µM, drug B concentration 31.62 pM | 0.985 | 0.999
drug A concentration 0.001 µM, drug B concentration 0.0001 µM | 1 | 0.937
drug A concentration 0.001 µM, drug B concentration 0.000316228 µM | 1.02 | 0.923
drug A concentration 0.001 µM, drug B concentration 0.001 µM | 0.892 | 0.935
drug A concentration 0.001 µM, drug B concentration 0.00316228 µM | 0.807 | 0.832
drug A concentration 0.001 µM, drug B concentration 0.01 µM | 0.498 | 0.709
drug A concentration 0.001 µM, drug B concentration 0.0316228 µM | 0.288 | 0.558
drug A concentration 0.001 µM, drug B concentration 0.1 µM | 0.238 | 0.444
drug A concentration 0.001 µM, drug B concentration 0.316228 µM | 0.233 | 0.258
drug A concentration 0.001 µM, drug B concentration 1 µM | 0.232 | 0.218
drug A concentration 0.00316228 µM, drug B concentration 0 µM | 0.921 | 0.917
drug A concentration 0.00316228 µM, drug B concentration 31.62 pM | 0.894 | 0.899
drug A concentration 0.00316228 µM, drug B concentration 0.0001 µM | 0.938 | 0.957
drug A concentration 0.00316228 µM, drug B concentration 0.000316228 µM | 0.912 | 0.905
drug A concentration 0.00316228 µM, drug B concentration 0.001 µM | 0.817 | 0.849
drug A concentration 0.00316228 µM, drug B concentration 0.00316228 µM | 0.675 | 0.753
drug A concentration 0.00316228 µM, drug B concentration 0.01 µM | 0.432 | 0.595
drug A concentration 0.00316228 µM, drug B concentration 0.0316228 µM | 0.275 | 0.439
drug A concentration 0.00316228 µM, drug B concentration 0.1 µM | 0.237 | 0.309
drug A concentration 0.00316228 µM, drug B concentration 0.316228 µM | 0.231 | 0.225
drug A concentration 0.00316228 µM, drug B concentration 1 µM | 0.232 | 0.214
drug A concentration 0.01 µM, drug B concentration 0 µM | 0.728 | 0.795
drug A concentration 0.01 µM, drug B concentration 31.62 pM | 0.777 | 0.778
drug A concentration 0.01 µM, drug B concentration 0.0001 µM | 0.787 | 0.8
drug A concentration 0.01 µM, drug B concentration 0.000316228 µM | 0.745 | 0.753
drug A concentration 0.01 µM, drug B concentration 0.001 µM | 0.613 | 0.674
drug A concentration 0.01 µM, drug B concentration 0.00316228 µM | 0.495 | 0.622
drug A concentration 0.01 µM, drug B concentration 0.01 µM | 0.31 | 0.454
drug A concentration 0.01 µM, drug B concentration 0.0316228 µM | 0.247 | 0.333
drug A concentration 0.01 µM, drug B concentration 0.1 µM | 0.24 | 0.245
drug A concentration 0.01 µM, drug B concentration 0.316228 µM | 0.231 | 0.216
drug A concentration 0.01 µM, drug B concentration 1 µM | 0.231 | 0.212
drug A concentration 0.0316228 µM, drug B concentration 0 µM | 0.503 | 0.601
drug A concentration 0.0316228 µM, drug B concentration 31.62 pM | 0.461 | 0.56
drug A concentration 0.0316228 µM, drug B concentration 0.0001 µM | 0.488 | 0.582
drug A concentration 0.0316228 µM, drug B concentration 0.000316228 µM | 0.466 | 0.546
drug A concentration 0.0316228 µM, drug B concentration 0.001 µM | 0.385 | 0.524
drug A concentration 0.0316228 µM, drug B concentration 0.00316228 µM | 0.314 | 0.441
drug A concentration 0.0316228 µM, drug B concentration 0.01 µM | 0.258 | 0.351
drug A concentration 0.0316228 µM, drug B concentration 0.0316228 µM | 0.239 | 0.263
drug A concentration 0.0316228 µM, drug B concentration 0.1 µM | 0.234 | 0.223
drug A concentration 0.0316228 µM, drug B concentration 0.316228 µM | 0.231 | 0.212
drug A concentration 0.0316228 µM, drug B concentration 1 µM | 0.231 | 0.218
drug A concentration 0.1 µM, drug B concentration 0 µM | 0.301 | 0.436
drug A concentration 0.1 µM, drug B concentration 31.62 pM | 0.293 | 0.419
drug A concentration 0.1 µM, drug B concentration 0.0001 µM | 0.302 | 0.422
drug A concentration 0.1 µM, drug B concentration 0.000316228 µM | 0.286 | 0.399
drug A concentration 0.1 µM, drug B concentration 0.001 µM | 0.273 | 0.373
drug A concentration 0.1 µM, drug B concentration 0.00316228 µM | 0.251 | 0.347
drug A concentration 0.1 µM, drug B concentration 0.01 µM | 0.238 | 0.281
drug A concentration 0.1 µM, drug B concentration 0.0316228 µM | 0.232 | 0.233
drug A concentration 0.1 µM, drug B concentration 0.1 µM | 0.231 | 0.215
drug A concentration 0.1 µM, drug B concentration 0.316228 µM | 0.23 | 0.211
drug A concentration 0.1 µM, drug B concentration 1 µM | 0.231 | 0.211
drug A concentration 0.316228 µM, drug B concentration 0 µM | 0.246 | 0.336
drug A concentration 0.316228 µM, drug B concentration 31.62 pM | 0.248 | 0.325
drug A concentration 0.316228 µM, drug B concentration 0.0001 µM | 0.25 | 0.339
drug A concentration 0.316228 µM, drug B concentration 0.000316228 µM | 0.246 | 0.317
drug A concentration 0.316228 µM, drug B concentration 0.001 µM | 0.245 | 0.298
drug A concentration 0.316228 µM, drug B concentration 0.00316228 µM | 0.238 | 0.272
drug A concentration 0.316228 µM, drug B concentration 0.01 µM | 0.235 | 0.234
drug A concentration 0.316228 µM, drug B concentration 0.0316228 µM | 0.232 | 0.216
drug A concentration 0.316228 µM, drug B concentration 0.1 µM | 0.232 | 0.211
drug A concentration 0.316228 µM, drug B concentration 0.316228 µM | 0.23 | 0.211
drug A concentration 0.316228 µM, drug B concentration 1 µM | 0.231 | 0.212
drug A concentration 1 µM, drug B concentration 0 µM | 0.239 | 0.26
drug A concentration 1 µM, drug B concentration 31.62 pM | 0.24 | 0.254
drug A concentration 1 µM, drug B concentration 0.0001 µM | 0.248 | 0.252
drug A concentration 1 µM, drug B concentration 0.000316228 µM | 0.238 | 0.246
drug A concentration 1 µM, drug B concentration 0.001 µM | 0.237 | 0.242
drug A concentration 1 µM, drug B concentration 0.00316228 µM | 0.236 | 0.246
drug A concentration 1 µM, drug B concentration 0.01 µM | 0.235 | 0.217
drug A concentration 1 µM, drug B concentration 0.0316228 µM | 0.233 | 0.223
drug A concentration 1 µM, drug B concentration 0.1 µM | 0.234 | 0.212
drug A concentration 1 µM, drug B concentration 0.316228 µM | 0.233 | 0.21
drug A concentration 1 µM, drug B concentration 1 µM | 0.234 | 0.217
drug A concentration 3.16228 µM, drug B concentration 0 µM | 0.245 | 0.227
drug A concentration 3.16228 µM, drug B concentration 31.62 pM | 0.243 | 0.224
drug A concentration 3.16228 µM, drug B concentration 0.0001 µM | 0.243 | 0.224
drug A concentration 3.16228 µM, drug B concentration 0.000316228 µM | 0.242 | 0.228
drug A concentration 3.16228 µM, drug B concentration 0.001 µM | 0.241 | 0.219
drug A concentration 3.16228 µM, drug B concentration 0.00316228 µM | 0.24 | 0.215
drug A concentration 3.16228 µM, drug B concentration 0.01 µM | 0.237 | 0.214
drug A concentration 3.16228 µM, drug B concentration 0.0316228 µM | 0.239 | 0.214
drug A concentration 3.16228 µM, drug B concentration 0.1 µM | 0.238 | 0.218
drug A concentration 3.16228 µM, drug B concentration 0.316228 µM | 0.238 | 0.213
drug A concentration 3.16228 µM, drug B concentration 1 µM | 0.239 | 0.215
